What was measured:
Type in all cases: in vivo
[1] = system: rats with adjuvant arthritis; assay: Freund adjuvant arthritis test (anti-inflammatory activity); settings: arthritic score versus first score, suspended in gum acacia
Procedure: The anti-inflammatory activity was determined by the Freund adjuvant arthritis test (Pearson, C.M. Proc. Soc. Exp. Biol. Med 91, 95 1956) and analgesic activity was determined by applying an increasing pressure to the inflamed paw (Randall, L.O. Selitto, J.J., Arch. Int. Pharmacodyn, 111, 409 1957) and recording pain threshold.
The anti-inflammatory activity of the compounds was determined in rats with adjuvant arthritis (Pearson, C.M. Prod. Soc. Exp. Biol. Med., 91, 95, 1956) induced by intradermal,injection into the tail of 0.1 ml of a fine suspension of Mycobacterium butyricum in liquid paraffin (6 mg.ml^-1).
After 14 days, animals were chosen on the basis of their arthritic score and test compounds, suspended in gum acacia, were then orally administered once a day for 14 days. At the end of this period, animals were scored again and percentage inhibition versus first score was calculated. Comparisons with controls were performed by the Dunnett test. The following results were obtained for the compounds of the Examples: […]

Toxicity (oral LD50) = settings: in vivo, po; rat, orally
Procedure: (§1) The compounds are in general non-toxic at therapeutically active doses. For example, the compound of Example 1 has an LD50 value in the rat in excess of 3000 mg.kg ^-1 orally.

rat = assay: Toxicity (oral LD50); settings: result in words
Procedure: as §1

[2] = oral dose 50.0 mg.kg^-1 once a day for 14 days

For COc1ccc2c(c1)c(CC(=O)Nc1nnnn1-c1ccc([N+](=O)[O-])cc1)c(C)n2C(=O)c1ccc(Cl)cc1 [Example 3, 1-(4-Nitrophenyl)-5-[1-(4-chlorobenzoyl)-5-methoxy-2-methylindol-3-ylacetamido] tetrazole], the “% Inhibition” value ([1]; oral dose 10.0 mg.kg^-1 once a day for 14 days) was 47.7%.

For COc1ccc2c(c1)c(CC(=O)Nc1nnnn1-c1ccc(Cl)c(Cl)c1)c(C)n2C(=O)c1ccc(Cl)cc1 [Example 2, 1-(3,4-Dichlorophenyl)-5-[1-(4-chlorobenzoyl)-5-methoxy-2-methylindol-3-ylacetamido]tetrazole], the “% Inhibition” value [1, 2] was 40.3%.

With COc1ccc2c(c1)c(CC(=O)Nc1nnnn1-c1ccc(N)cc1)c(C)n2C(=O)c1ccc(Cl)cc1 [Example 4] the “% Inhibition” value [1, 2] was 44.8%.

For COc1ccc2c(c1)c(CC(=O)Nc1nnnn1-c1ccccc1)c(C)n2C(=O)c1ccc(Cl)cc1 [Example 1, 1-Phenyl-5-[1-(4-chlorobenzoyl)-5-methoxy-2-methylindol-3-ylacetamido]tetrazole], the “% Inhibition” value ([1]; oral dose 6.25 mg.kg^-1 once a day for 14 days) was 59%, the LD50 (Toxicity (oral LD50)) was greater than 3000 mg/kg and the therapeutic index (rat) was “particularly advantageous”.
